From PubChem BioAssay (NCI)
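In this assay, cells in 96-well plates receive the compound at five concentrations for 48 hours. Endpoints are linearly interpolated between the surrounding concentrations. GI50 = concentration required for 50% inhibition of growth. The concentration for full growth arrest is given as TGI.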

Key:
Assay in all cases: growth of human tumour cells (NCI), 48 h
[1] = test system: 786-0 renal
[2] = test system: A498 renal
[3] = test system: A549 NSCLC
[4] = test system: ACHN renal
[5] = test system: BT-549 breast
[6] = test system: CAKI-1 renal
[7] = test system: CCRF-CEM leukemia
[8] = test system: COLO 205 colon
[9] = test system: DU-145 prostate
[10] = test system: EKVX NSCLC
[11] = test system: HCC-2998 colon
[12] = test system: HCT-116 colon
[13] = test system: HCT-15 colon
[14] = test system: HL-60(TB) leukemia
[15] = test system: HOP-62 NSCLC
[16] = test system: HOP-92 NSCLC
[17] = test system: HS 578T breast
[18] = test system: HT29 colon
[19] = test system: IGROV1 ovarian
[20] = test system: K-562 leukemia
[21] = test system: KM12 colon
[22] = test system: LOX IMVI melanoma
[23] = test system: M14 melanoma
[24] = test system: MALME-3M melanoma
[25] = test system: MCF7 breast
[26] = test system: MDA-MB-231 breast
[27] = test system: MDA-MB-435
[28] = test system: MDA-MB-468 breast
[29] = test system: MOLT-4 leukemia
[30] = test system: NCI-H226 lung
[31] = test system: NCI-H23 lung
[32] = test system: NCI-H460 lung
[33] = test system: NCI-H522 lung
[34] = test system: NCI/ADR-RES ovarian
[35] = test system: OVCAR-3 ovarian
[36] = test system: OVCAR-4 ovarian
[37] = test system: OVCAR-5 ovarian
[38] = test system: OVCAR-8 ovarian
[39] = test system: PC-3 prostate
[40] = test system: RPMI-8226 leukemia
[41] = test system: RXF 393 renal
[42] = test system: SF-268 CNS
[43] = test system: SF-295 CNS
[44] = test system: SF-539 CNS
[45] = test system: SK-MEL-2 melanoma
[46] = test system: SK-MEL-28 melanoma
[47] = test system: SK-MEL-5 melanoma
[48] = test system: SK-OV-3 ovarian
[49] = test system: SN12C renal
[50] = test system: SNB-19 CNS
[51] = test system: SNB-75 CNS
[52] = test system: SR leukemia
[53] = test system: SW-620 colon
[54] = test system: T-47D breast
[55] = test system: TK-10 renal
[56] = test system: U251 CNS
[57] = test system: UACC-257 melanoma
[58] = test system: UACC-62 melanoma
[59] = test system: UO-31 renal

Question: What does the source list for `CC1(C)CC[C@]2(C(=O)O)CC[C@]3(C)C(=CCC4[C@@]5(C)C[C@@H](O)[C@@H]6OC(c7ccc(F)cc7)OC[C@@]6(C)C5CC[C@]43C)C2C1` (stereo partly drawn)?
Answer: GI50 [1]: 7.56 µM; TGI [1]: 27.5 µM; GI50 [2]: 5.41 µM; TGI [2]: 20.1 µM; GI50 [3]: 2.81 µM; TGI [3]: 16.5 µM; GI50 [4]: 3.56 µM; TGI [4]: 32.5 µM; GI50 [5]: 4.34 µM; TGI [5]: 17.9 µM; GI50 [6]: 9.28 µM; TGI [6]: 26.3 µM; GI50 [7]: 3.58 µM; TGI [7]: 25.8 µM; GI50 [8]: 4.53 µM; TGI [8]: 17.9 µM; GI50 [9]: 5.23 µM; TGI [9]: > 100 µM; GI50 [10]: 3.14 µM; TGI [10]: 15.3 µM; GI50 [11]: 4.34 µM; TGI [11]: 14.8 µM; GI50 [12]: 3.5 µM; TGI [12]: 13.7 µM; GI50 [13]: 2.42 µM; TGI [13]: 11.6 µM; GI50 [14]: 2.29 µM; TGI [14]: 6.41 µM; GI50 [15]: 6.68 µM; TGI [15]: 29.6 µM; GI50 [16]: 5.32 µM; TGI [16]: 27.6 µM; GI50 [17]: 5.56 µM; TGI [17]: 48.5 µM; GI50 [18]: 5.09 µM; TGI [18]: 30.3 µM; GI50 [19]: 7.62 µM; TGI [19]: 24.9 µM; GI50 [20]: 2.26 µM; TGI [20]: > 100 µM; GI50 [21]: 4.2 µM; TGI [21]: 18.9 µM; GI50 [22]: 4.13 µM; TGI [22]: 16.2 µM; GI50 [23]: 10.7 µM; TGI [23]: 27 µM; GI50 [24]: 8.39 µM; TGI [24]: 22.9 µM; GI50 [25]: 4.03 µM; TGI [25]: 28.2 µM; GI50 [26]: 13 µM; TGI [26]: 28.7 µM; GI50 [27]: 10.8 µM; TGI [27]: 23.7 µM; GI50 [28]: 3.26 µM; TGI [28]: 19.5 µM; GI50 [29]: 2.64 µM; TGI [29]: 12 µM; GI50 [30]: 3.96 µM; TGI [30]: 23.5 µM; GI50 [31]: 4.95 µM; TGI [31]: 21.1 µM; GI50 [32]: 4.38 µM; TGI [32]: 18.1 µM; GI50 [33]: 5.21 µM; TGI [33]: 23.8 µM; GI50 [34]: 4.3 µM; TGI [34]: 22.8 µM; GI50 [35]: 4.13 µM; TGI [35]: 18.8 µM; GI50 [36]: 5.63 µM; TGI [36]: 38.4 µM; GI50 [37]: 13.3 µM; TGI [37]: 33.5 µM; GI50 [38]: 6.96 µM; TGI [38]: 40.2 µM; GI50 [39]: 4.18 µM; TGI [39]: > 100 µM; GI50 [40]: 4.35 µM; TGI [40]: > 100 µM; GI50 [41]: 6.66 µM; TGI [41]: 20.5 µM; GI50 [42]: 5.3 µM; TGI [42]: > 100 µM; GI50 [43]: 3.57 µM; TGI [43]: 15.9 µM; GI50 [44]: 6.71 µM; TGI [44]: 21.3 µM; GI50 [45]: 9.47 µM; TGI [45]: 24.2 µM; GI50 [46]: 12.5 µM; TGI [46]: 25.4 µM; GI50 [47]: 4.13 µM; TGI [47]: 16.2 µM; GI50 [48]: 11.6 µM; TGI [48]: 39.2 µM; GI50 [49]: 7.55 µM; TGI [49]: 30.2 µM; GI50 [50]: 7.35 µM; TGI [50]: > 100 µM; GI50 [51]: 2.05 µM; TGI [51]: 45.3 µM; GI50 [52]: 4.18 µM; TGI [52]: 37 µM; GI50 [53]: 6.54 µM; TGI [53]: 30.3 µM; GI50 [54]: 11.8 µM; TGI [54]: 95.9 µM; GI50 [55]: 10.1 µM; TGI [55]: > 100 µM; GI50 [56]: 3.54 µM; TGI [56]: 17 µM; GI50 [57]: 10.9 µM; TGI [57]: 31 µM; GI50 [58]: 11.4 µM; TGI [58]: 24.3 µM; GI50 [59]: 4.17 µM; TGI [59]: 21.7 µM
